Read-outs that look alike come from different tables or passages of the source.
Tested on: primary rat mixed cortical cells
Assay: In vitro myelination assay (MBP positive myelin strands, fold myelin pixels above background)
Format: cell-based
Conditions: Rattus norvegicus; for fold induction at 1 µM: 1.0 μM compound; for fold induction at 10 µM: 10.0 μM compound
Excerpt: In Vitro Myelination Assay
Compounds were screened for their ability to induce myelination using a primary rat mixed cortical cell culture assay, which contains neurons, oligodendrocyte precursor cells, oligodendrocytes, astrocytes and microglia. The assay quantifies myelination by measuring myelin basic protein (MBP) immunofluorescent positive myelin strands from images taken using a Cellomics Array Scan (model Arrayscan VTI HCS Reader) or a Molecular Devices Image Xpress (model IXM XL) high content imager. The myelin strands were quantitated using a custom created myelin detection software program. Test compounds were dissolved in DMSO to make a 10 mM initial stock solution. Dilutions were made in myelination medium to obtain the final solutions for the assay and were tested in primary rat mixed cortical cells at selected doses.
Primary rat mixed cortical cells were prepared from harvested cerebral cortices from postnatal day 1 (P1) rats (P1 Rat CD® IGS pups) were purchased from Charles River) in Complete Dissociation Medium, wherein the meninges were removed and the cortical tissue chopped with a razor blade into ˜1 mm^3 pieces. Tissue from 1-3 pups was collected and placed into 15 ml conical tubes in a total volume of 5 ml of Complete Dissociation Medium. Activated papain (3 ml) was added to each 15 ml conical tube and tissue was incubated at 37° C. for 30 minutes. After the 30 minute incubation, DNase (Sigma D4527; 75 μl of a 1 mg/ml stock) was added to each tube, followed by mechanical trituration using a 2 ml serological pipette and autopipettor to gently dissociate the tissue. Following trituration, larger tissue pieces were allowed to settle by gravity, and the supernatant containing dissociated cells was transferred to a 50 ml conical tube with 4 ml of trypsin inhibitor. Cells were pelleted by centrifugation, resuspended in myelination medium and filtered through a 40 μm filter. Cells were then seeded in 96-well plates (BD Biosciences, Black, PDL-coated, Cat. No. 356640) at 87,500-95,000 cells/well in a final volume of 200 μl of Myelination Medium in the presence or absence of compound and cultured for 14 days in a humidified 37° C. incubator with 5% CO2. Half the medium was removed and replaced with fresh medium containing 1× compound on days 6 and 10. Using a Biotek automatic plate washer (model Biomek® FXP Laboratory Automation Workstation), cells were fixed with 4% paraformaldehyde on day 14, washed with PBS and blocked in 5% normal goat serum (Vector Laboratories, S-1000) in 0.1% PBS-TritonX-100 (PBST) for 1 hour. Cells were stained with 1:500 anti-MBP (Covance, cat # SMI99) primary antibody in 1% normal goat serum in 0.1% PBST for 2 hours at room temperature followed by 2 washes with PBST. A final incubation in secondary antibody (1:1000, Invitrogen, Alexa-488 anti-mouse IgG2b) and 1:10,000 Hoechst dye in 1% normal goat serum in 0.1% PBST was performed for 2 hours at room temperature. Plates were washed with PBS and then scanned on a Cellomics Array Scan using a 10× objective (25 images per well) or the Image Xpress using a 10× objective (9 image per well). Images were analyzed using Vertex myelin detection software (described below) to quantify total MBP myelin pixels per well. Fold myelin pixels above background at two concentrations (1.0 μM and 10.0 μM) relative to baseline of no added compound are reported below in Table 4. Standard deviation for each compound concentration was calculated using all replicates and using a standard deviation formula commonly used in the art.
One of skill in the art would recognize that for this type of primary neuronal mixed cell assay variability between different assay runs is to be expected even though the protocol is the same for each assay run. For instance, variability may be due to small differences in cell viability, cell density, age of the animals, etc.
Vertex Myelin Detection Software: […]

[1] = read-out: Fold myelin pixels above background relative to baseline of no added compound
[2] = relative to baseline of no added compound, read-out: Fold myelin pixels above background, 1.0 μM
[3] = relative to baseline of no added compound, read-out: Fold myelin pixels above background, 10.0 μM
[4] = relative to baseline of no added compound, read-out: Fold myelin pixels above background

SMILES	fold induction at 1 µM [1]	fold induction at 10 µM [1]	fold induction at 1 µM [2]	fold induction at 10 µM [3]	also measured
[2H]C1([2H])N(c2cc(Nc3ncn(-c4cc(F)cc(F)c4)n3)cc(C(F)F)c2)C([2H])([2H])C([2H])([2H])C([2H])([2H])C1([2H])[2H] [Compound 876, N-[3-(2,2,3,3,4,4,5,5,6,6-decadeuterio-1-piperidyl)-5-(difluoromethyl)phenyl]-1-(3,5-difluorophenyl)-1,2,4-triazol-3-amine]	10 to 100	10 to 100	–	–	–
CN1CCN(c2cc(F)cc(Nc3ncn(-c4ccccc4)n3)c2)CC1 [Compound 213, N-[3-fluoro-5-(4-methylpiperazin-1-yl)phenyl]-1-phenyl-1,2,4-triazol-3-amine]	–	–	100 to 1000	≤ 1	–
Cc1cc(Nc2ncn(-c3cc(F)cc(F)c3)n2)cc(N2CCN(CC(F)(F)F)CC2)c1 [Compound 421, 1-(3,5-difluorophenyl)-N-[3-methyl-5-[4-(2,2,2-trifluoroethyl)piperazin-1-yl]phenyl]-1,2,4-triazol-3-amine]	–	–	–	–	fold induction at 1 µM [4]: 100 to 1000; fold induction at 10 µM [4]: 100 to 1000
CC(C)(C)c1cc(Nc2ncn(-c3ccccc3)n2)cc(N2CCN(C3COC3)CC2)c1 [Compound 376, N-[3-tert-butyl-5-[4-(oxetan-3-yl)piperazin-1-yl]phenyl]-1-phenyl-1,2,4-triazol-3-amine]	–	–	100 to 1000	1 to 10	–
COCC1CCCN(c2cc(C)cc(Nc3ncn(-c4cc(F)cc(F)c4)n3)n2)C1 (stereo not shown) [Compound 786, N-[1-(3,5-difluorophenyl)-1,2,4-triazol-3-yl]-6-[3-(methoxymethyl)-1-piperidyl]-4-methyl-pyridin-2-amine]	–	–	–	–	fold induction at 1 µM [4]: 1 to 10; fold induction at 10 µM [4]: ≤ 1
Cc1cc(Nc2ncn(-c3cc(F)cc(F)c3)n2)cc(C2COC2)c1 [Compound 131, 1-(3,5-difluorophenyl)-N-[3-methyl-5-(oxetan-3-yl)phenyl]-1,2,4-triazol-3-amine]	–	–	10 to 100	1000 to 10000	–
Cc1cc(Nc2ncn(-c3ccc(F)c(F)c3)n2)cc(OCC2CCOC2)c1 (stereo not shown) [Compound 865, 1-(3,4-difluorophenyl)-N-[3-methyl-5-(tetrahydrofuran-3-ylmethoxy)phenyl]-1,2,4-triazol-3-amine]	1 to 10	1 to 10	–	–	–
Cc1cc(Nc2ncn(-c3ccccc3)n2)cc(N2CCCC(C#N)C2)c1 (stereo not shown) [Compound 146, 1-[3-methyl-5-[(1-phenyl-1,2,4-triazol-3-yl)amino]phenyl]piperidine-3-carbonitrile]	–	–	1000 to 10000	100 to 1000	–
Cc1cc(Nc2ncn(-c3cc(F)cc(F)c3)n2)cc(C2CCNCC2)c1 [Compound 108, 1-(3,5-difluorophenyl)-N-[3-methyl-5-(4-piperidyl)phenyl]-1,2,4-triazol-3-amine]	–	–	10 to 100	≤ 1	–
Cc1cc(Nc2ncn(-c3cc(F)cc(F)c3)n2)cc(N2CCC(CN3CCOCC3)C2)c1 (stereo not shown) [Compound 983, 1-(3,5-difluorophenyl)-N-[3-methyl-5-[3-(morpholinomethyl)pyrrolidin-1-yl]phenyl]-1,2,4-triazol-3-amine]	1 to 10	1 to 10	–	–	–
Cc1cc(Nc2ncn(-c3cc(F)cc(F)c3)n2)cc(NC2(C(=O)N(C)C)CCC2)c1 [Compound 887, 1-[3-[[1-(3,5-difluorophenyl)-1,2,4-triazol-3-yl]amino]-5-methyl-anilino]-N,N-dimethyl-cyclobutanecarboxamide]	10 to 100	10 to 100	–	–	–
Cc1cc(Nc2ncn(-c3cc(F)cc(F)c3)n2)cc(NC2CN(C3COC3)C2)c1 [Compound 881, N3-[1-(3,5-difluorophenyl)-1,2,4-triazol-3-yl]-5-methyl-N1-[1-(oxetan-3-yl)azetidin-3-yl]benzene-1,3-diamine]	10 to 100	≤ 1	–	–	–
CCC(CO)N1CCN(c2cc(C)cc(Nc3ncn(-c4cc(F)cc(F)c4)n3)c2)CC1 (stereo not shown) [Compound 904, 2-[4-[3-[[1-(3,5-difluorophenyl)-1,2,4-triazol-3-yl]amino]-5-methyl-phenyl]piperazin-1-yl]butan-1-ol]	≤ 1	≤ 1	–	–	–
CC(=O)N1CCC(Nc2cc(C)cc(Nc3ncn(-c4ccccc4)n3)c2)CC1 [Compound 402, 1-[4-[3-methyl-5-[(1-phenyl-1,2,4-triazol-3-yl)amino]anilino]-1-piperidyl]ethanone]	–	–	–	–	fold induction at 1 µM [4]: 100 to 1000; fold induction at 10 µM [4]: 10 to 100
Cc1cc(Nc2ncn(-c3cc(F)cc(F)c3)n2)cc(NC2CCN(C3COC3)CC2)c1 [Compound 38, N3-[1-(3,5-difluorophenyl)-1,2,4-triazol-3-yl]-5-methyl-N1-[1-(oxetan-3-yl)-4-piperidyl]benzene-1,3-diamine]	–	–	10 to 100	10 to 100	–
Cc1cc(Nc2ncn(-c3cc(F)cc(F)c3)n2)cc(NC2CCCC2N2CCOCC2)c1 (stereo not shown) [Compound 912, N3-[1-(3,5-difluorophenyl)-1,2,4-triazol-3-yl]-5-methyl-N1-(2-morpholinocyclopentyl)benzene-1,3-diamine]	1 to 10	1 to 10	–	–	–
Cc1cc(Nc2ncn(-c3cccc(F)c3F)n2)cc(N2CCN(C3COC3)CC2)c1 [Compound 445, 1-(2,3-difluorophenyl)-N-[3-methyl-5-[4-(oxetan-3-yl)piperazin-1-yl]phenyl]-1,2,4-triazol-3-amine]	–	–	–	–	fold induction at 1 µM [4]: 10 to 100; fold induction at 10 µM [4]: 10 to 100
CC(C)Oc1cc(Nc2ncn(-c3cc(F)cc(F)c3)n2)cc(N2CC(N3CCOCC3)C2)c1 [Compound 830, 1-(3,5-difluorophenyl)-N-[3-isopropoxy-5-(3-morpholinoazetidin-1-yl)phenyl]-1,2,4-triazol-3-amine]	100 to 1000	10 to 100	–	–	–
Cc1cc(Nc2ncn(-c3ccccc3)n2)cc(C2CCN(C3CC3)CC2)c1 [Compound 120, N-[3-(1-cyclopropyl-4-piperidyl)-5-methyl-phenyl]-1-phenyl-1,2,4-triazol-3-amine]	–	–	1000 to 10000	≤ 1	–
FC(F)(F)c1cc(Nc2ncn(-c3ccccn3)n2)nc(N2CCN(C3COC3)CC2)c1 [Compound 548, 6-[4-(oxetan-3-yl)piperazin-1-yl]-N-[1-(2-pyridyl)-1,2,4-triazol-3-yl]-4-(trifluoromethyl)pyridin-2-amine]	–	–	–	–	fold induction at 1 µM [4]: 1 to 10; fold induction at 10 µM [4]: 1 to 10
Cc1cc(Nc2ncn(-c3cc(F)cc(F)c3)n2)cc(N2CCOCC2)c1 [Compound 374, 1-(3,5-difluorophenyl)-N-(3-methyl-5-morpholino-phenyl)-1,2,4-triazol-3-amine]	–	–	100 to 1000	100 to 1000	–
Cc1cc(Nc2ncn(-c3cc(F)cc(F)c3)n2)cc(N2CCC3OCC3C2)c1 (stereo not shown) [Compound 1057, 1-(3,5-difluorophenyl)-N-[3-methyl-5-(8-oxa-4-azabicyclo[4.2.0]octan-4-yl)phenyl]-1,2,4-triazol-3-amine]	1 to 10	≤ 1	–	–	–
Cc1cc(Nc2ncn(-c3ccccc3)n2)cc(N2CCN(C)C(=O)C2)c1 [Compound 76, 1-methyl-4-[3-methyl-5-[(1-phenyl-1,2,4-triazol-3-yl)amino]phenyl]piperazin-2-one]	–	–	100 to 1000	100 to 1000	–

Reference: patent US10766869B2, “Triazoles for the treatment of demyelinating dieases” (Vertex Pharmaceuticals Incorporated, priority 2015, dated 2020)
